Numbered stars: 1 amine (or outer) side, 2 acyl side, 3 side chain; on linkers, the order of the positions; unused ones are H or OH. Bridge positions count the residues as written; N and C are the ends. Square brackets hold non-standard residues; d marks the D form. Peptide text beside a SMILES is read from it. * marks the point of attachment. hPhe(3,5-F2-4-CF3) = N[C@@H](CCc1cc(F)c(C(F)(F)F)c(F)c1)C(=O)O; hPhe(3-Cl-4-CF3) = N[C@@H](CCc1ccc(C(F)(F)F)c(Cl)c1)C(=O)O; hPhe(3-F,4-CF3) = N[C@@H](CCc1ccc(C(F)(F)F)c(F)c1)C(=O)O; NEtPhe(4-CF3) = CCN[C@@H](Cc1ccc(C(F)(F)F)cc1)C(=O)O; NMePhe(4-CF3) = CN[C@@H](Cc1ccc(C(F)(F)F)cc1)C(=O)O; hPhe(4-CF3) = N[C@@H](CCc1ccc(C(F)(F)F)cc1)C(=O)O; NMePhe(4-Me) = CN[C@@H](Cc1ccc(C)cc1)C(=O)O; NMePhe(2-Cl) = CN[C@@H](Cc1ccccc1Cl)C(=O)O; NMedβ3hAla = C[C@H](CC(=O)[*:2])N(C)[*:1]; NMeAla(cPent) = CN[C@@H](CC1CCCC1)C(=O)O; NMeNva(5,5-F2) = CN[C@@H](CCC(F)F)C(=O)O; NMeGly(cPent) = CN[C@H](C(=O)O)C1CCCC1; NMe3Pal = CN[C@@H](Cc1cccnc1)C(=O)O; NMeCha = CN[C@@H](CC1CCCCC1)C(=O)O; Hyp = O=C(O)[C@@H]1C[C@@H](O)CN1; NMeAhp(2) = CCCCC[C@H](NC)C(=O)O; NMeChg = CN[C@H](C(=O)O)C1CCCCC1; NMeI = CC[C@H](C)[C@H](NC)C(=O)O; NMeD = CN[C@@H](CC(=O)O)C(=O)O; NMeL = CN[C@@H](CC(C)C)C(=O)O; dNMeAbu = CC[C@@H](NC)C(=O)O; NMeNva = CCC[C@H](NC)C(=O)O; NMeV = CN[C@H](C(=O)O)C(C)C; d(β3hA) = C[C@@H](N)CC(=O)O; NMeS = CN[C@@H](CO)C(=O)O; Morpholide = C1CN(*)CCO1; NMeA = CN[C@@H](C)C(=O)O; NMeAib = CNC(C)(C)C(=O)O; Piperidide = C1CCN(*)CC1; Pyrrolidide = C1CCN(*)C1; Ac5c = NC1(C(=O)O)CCCC1; Aze = O=C(O)[C@@H]1CCN1; Ac4c = NC1(C(=O)O)CCC1; Ac3c = NC1(C(=O)O)CC1; Bn = c1ccc(C*)cc1; Sar = CNCC(=O)O; Propyl = CCC*
Columns and labels:
[1] = biological target: protein-protein interaction between Kras and SOS1 (biotin-tagged human Kras loaded with GDP, His-tagged human SOS1) (Homo sapiens (Human), UniProt P01116, G12D); test: Protein-protein interaction inhibition between Kras and SOS1 (KrasG12D-SOS PPI) using AlphaScreen; assay type: biochemical; settings: AlphaScreen; biotin-tagged human Kras loaded with GDP, His-tagged human SOS1; read-out: KRAS G12D-SOS PPI IC50;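 note: kras produced in E. coli, Ni-coupled donor beads and streptavidin acceptor beads, excitation 680 nm with emission detected at 520–620 nm via singlet oxygen transfer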
[2] = tested on: Human pancreatic cancer cell line AsPC-1 (G12D mutation Kras); test: AsPC-1 cell growth inhibition (AsPC-1 CGI); assay type: cell-based; settings: read-out: AsPC-1 cell growth inhibition, 50% growth inhibitory concentration (IC50 value); 96 hours, CellTiter-Glo, values classified in ranges
Procedure: Test compounds were serially dilated with dimethyl sulfoxide, and 200 nL was then dispensed to a U-bottom 96-well plate using Labcyte Echo. […] The cell suspension was dispensed to a. plate containing a test compound at 100 μL per well and incubated at 37° C. in a 5% carbon dioxide gas incubator. 96 hours later, 80 μL of CellTiter-Glo (Promega) was added to each well and fluorescence was measured.

SMILES | IC50 [1] [nM] | IC50 [2] [nM]
CC[C@H](C)[C@@H]1NC(=O)[C@H](CC(C)C)N(C)C(=O)C[C@@H](C)NC(=O)[C@H](CC(C)C)N(C)C(=O)C2(CCCC2)NC(=O)[C@@H]2C[C@@H](OCc3ccccc3)CN2C(=O)[C@H](CCc2ccc(C(F)(F)F)c(F)c2)NC(=O)CN(C)C(=O)[C@H](CC2CCCCC2)N(C)C(=O)CN(C)C(=O)CN(C)C1=O [Compound 2116, (3S,9S,18S,21S,25R,28S,34S,36R)-36-benzyloxy-9-(cylohexylmethyl)-3-[2-[3-fluoro-4-(trifluoromethyl)phenyl]ethyl]-21,28-diisobutyl-7,10,13,16,22,25,29-heptamethyl-18-[(1S)-1-methylpropyl]spiro[1,4,7,10,13,16,19,22,26,29,32-undecazabicyclo[32.3.0]heptatriacontane-31,1′-cyclopentane]-2,5,8,11,14,17,20,23,27,30,33-undecone] (cyclo([Ac5c][NMeL][d(β3hA)][NMeL]I[Sar][Sar][NMeCha][Sar][hPhe(3-F,4-CF3)][Hyp](Bn))) | 110 | > 500
CCCCC[C@H]1C(=O)N[C@@H]([C@@H](C)CC)C(=O)N[C@@H](C)C(=O)N2CC[C@H]2C(=O)N(C)[C@@H](Cc2ccc(C(F)(F)F)cc2)C(=O)N(C)CC(=O)N[C@@H](CCc2ccc(C(F)(F)F)c(Cl)c2)C(=O)N2CCC[C@H]2C(=O)NC2(CCCC2)C(=O)N(C)[C@@H]([C@@H](C)CC)C(=O)N(C)[C@H](C(=O)N2CCOCC2)CC(=O)N1C [Compound 54] ([NMeAhp(2)]IA[Aze][NMePhe(4-CF3)][Sar][hPhe(3-Cl-4-CF3)]P[Ac5c][NMeI][NMeD]-Morpholide; lactam N-11) | 1.9 | ≤ 20
CCCOC[C@H]1C(=O)N(C)CC(=O)N[C@@H](CCc2ccc(C(F)(F)F)c(Cl)c2)C(=O)N2CCC[C@H]2C(=O)NC2(CCCC2)C(=O)N(C)[C@@H](C2CCCC2)C(=O)N(C)[C@H](C(=O)N2CCCC2)CC(=O)N(C)[C@@H](CC(C)C)C(=O)N[C@@H]([C@@H](C)CC)C(=O)N(C)[C@@H](C)C(=O)N2CC[C@H]2C(=O)N1C [Compound 836] ([NMeL]I[NMeA][Aze][NMeS](Propyl)[Sar][hPhe(3-Cl-4-CF3)]P[Ac5c][NMeGly(cPent)][NMeD]-Pyrrolidide; lactam N-11) | 0.66 | ≤ 20
CC[C@H](C)[C@@H]1NC(=O)[C@H](CC(C)C)N(C)C(=O)C[C@@H](C(=O)N2CCCC2)N(C)C(=O)[C@H](C2CCCC2)N(C)C(=O)C2(CCCC2)NC(=O)[C@@H]2CCCN2C(=O)[C@H](CCc2ccc(C(F)(F)F)c(F)c2)NC(=O)CN(C)C(=O)[C@H](CC2CCCCC2)N(C)C(=O)[C@@H]2CCN2C(=O)[C@H](C)N(C)C1=O [Compound 1091] ([NMeL]I[NMeA][Aze][NMeCha][Sar][hPhe(3-F,4-CF3)]P[Ac5c][NMeGly(cPent)][NMeD]-Pyrrolidide; lactam N-11) | 1 | ≤ 20
CC[C@@H]1C(=O)NC2(CCCC2)C(=O)N(C)[C@@H](C2CCCCC2)C(=O)N(C)[C@H](C(=O)N2CCCCC2)CC(=O)N(C)[C@@H](CC(C)C)C(=O)N[C@@H]([C@@H](C)CC)C(=O)N(C)CC(=O)N(C)CC(=O)N(C)[C@@H](CC2CCCCC2)C(=O)N(C)CC(=O)N[C@@H](CCc2ccc(C(F)(F)F)c(Cl)c2)C(=O)N1C [Compound 1435] ([NMeL]I[Sar][Sar][NMeCha][Sar][hPhe(3-Cl-4-CF3)][dNMeAbu][Ac5c][NMeChg][NMeD]-Piperidide; lactam N-11) | 7.4 | > 500
CC[C@H](C)[C@@H]1NC(=O)[C@H](C)N(C)C(=O)C[C@@H](C(=O)N(C)C)N(C)C(=O)[C@H](C(C)C)N(C)C(=O)C2(CCCC2)NC(=O)[C@H](Cc2ccccc2Cl)N(C)C(=O)[C@H](CCc2ccc(C(F)(F)F)c(Cl)c2)NC(=O)CN(C)C(=O)[C@H](CC2CCCCC2)N(C)C(=O)CN(C)C(=O)CN(C)C1=O [Compound 317] ([NMeA]I[Sar][Sar][NMeCha][Sar][hPhe(3-Cl-4-CF3)][NMePhe(2-Cl)][Ac5c][NMeV][NMeD]-NMe2; lactam N-11) | 30 | > 500
CCO[C@@H]1C[C@H]2C(=O)NC3(CCC3)C(=O)N(C)[C@@H](C3CCCC3)C(=O)N(C)[C@H](C)CC(=O)N(C)[C@@H](CC(C)C)C(=O)N[C@@H]([C@@H](C)CC)C(=O)N(C)[C@@H](C)C(=O)N3CC[C@H]3C(=O)N(CC)[C@@H](Cc3ccc(C(F)(F)F)cc3)C(=O)N(C)CC(=O)N[C@@H](CCc3cc(F)c(C(F)(F)F)c(F)c3)C(=O)N2C1 [Compound 132] (cyclo([Ac4c][NMeGly(cPent)][NMedβ3hAla][NMeL]I[NMeA][Aze][NEtPhe(4-CF3)][Sar][hPhe(3,5-F2-4-CF3)][Hyp](Et))) | 0.96 | ≤ 20
CC[C@H](C)[C@@H]1NC(=O)[C@H](CC(C)C)N(C)C(=O)C[C@@H](C)N(C)C(=O)[C@H](CC(C)C)NC(=O)C(C)(C)N(C)C(=O)[C@H](CC(C)C)NC(=O)[C@H](CCc2ccc(C(F)(F)F)cc2)NC(=O)CN(C)C(=O)[C@H](CC2CCCCC2)N(C)C(=O)CN(C)C(=O)CN(C)C1=O [Compound 262] (cyclo(I[Sar][Sar][NMeCha][Sar][hPhe(4-CF3)]L[NMeAib]L[NMedβ3hAla][NMeL])) | 43 | > 500
CC[C@H](C)[C@@H]1NC(=O)[C@H](CC(C)C)N(C)C(=O)C[C@@H](C(=O)N2CCCCC2)N(C)C(=O)[C@H](CCC(F)F)N(C)C(=O)C2(CCCC2)NC(=O)[C@@H]2CCCN2C(=O)[C@H](CCc2ccc(C(F)(F)F)c(Cl)c2)NC(=O)CN(C)C(=O)[C@H](CC2CCCCC2)N(C)C(=O)[C@@H]2CCN2C(=O)[C@H](C)N(C)C1=O [Compound 1660] ([NMeL]I[NMeA][Aze][NMeCha][Sar][hPhe(3-Cl-4-CF3)]P[Ac5c][NMeNva(5,5-F2)][NMeD]-Piperidide; lactam N-11) | 16 | > 500
CC[C@H](C)[C@@H]1NC(=O)[C@H](CC(C)C)N(C)C(=O)C[C@@H](C(=O)N2CCCCC2)N(C)C(=O)[C@H](C(C)C)N(C)C(=O)C2(CC2)NC(=O)[C@@H]2CCCN2C(=O)[C@H](CCc2ccc(C(F)(F)F)c(Cl)c2)NC(=O)CN(C)C(=O)[C@H](CC2CCCCC2)N(C)C(=O)[C@@H]2CCN2C(=O)[C@H](C)N(C)C1=O [Compound 1695] ([NMeL]I[NMeA][Aze][NMeCha][Sar][hPhe(3-Cl-4-CF3)]P[Ac3c][NMeV][NMeD]-Piperidide; lactam N-11) | 8 | > 500
CCO[C@@H]1C[C@H]2C(=O)NC3(CCCC3)C(=O)N(C)[C@@H](C3CCCC3)C(=O)N(C)[C@H](C(=O)N3CCCC3)CC(=O)N(C)[C@@H](CC(C)C)C(=O)N[C@@H]([C@@H](C)CC)C(=O)N(C)CC(=O)N(C)CC(=O)N(C)[C@@H](CC3CCCCC3)C(=O)N(C)CC(=O)N[C@@H](CCc3ccc(C(F)(F)F)c(Cl)c3)C(=O)N2C1 [Compound 1370] ([NMeL]I[Sar][Sar][NMeCha][Sar][hPhe(3-Cl-4-CF3)][Hyp](Et)[Ac5c][NMeGly(cPent)][NMeD]-Pyrrolidide; lactam N-11) | 0.6 | ≤ 20
CCC[C@H]1C(=O)N[C@@H]([C@@H](C)CC)C(=O)N(C)CC(=O)N(C)CC(=O)N(C)[C@@H](Cc2ccc(C)cc2)C(=O)N(C)CC(=O)N[C@@H](CCc2cc(F)c(C(F)(F)F)c(F)c2)C(=O)N2C[C@H](OCC)C[C@H]2C(=O)NC2(CCCC2)C(=O)N(C)[C@@H](C2CCCCC2)C(=O)N(C)[C@H](C(=O)N2CCCC2)CC(=O)N1C [Compound 1224] ([NMeNva]I[Sar][Sar][NMePhe(4-Me)][Sar][hPhe(3,5-F2-4-CF3)][Hyp](Et)[Ac5c][NMeChg][NMeD]-Pyrrolidide; lactam N-11) | 0.67 | ≤ 20
CC[C@H](C)[C@@H]1NC(=O)[C@H](CC(C)C)N(C)C(=O)C[C@@H](C(=O)N(C)C)N(C)C(=O)[C@H]([C@@H](C)CC)N(C)C(=O)[C@H](C)NC(=O)[C@@H]2CCCN2C(=O)[C@H](CCc2ccc(C(F)(F)F)c(Cl)c2)NC(=O)CN(C)C(=O)[C@H](Cc2ccc(C)cc2)N(C)C(=O)[C@@H]2CCN2C(=O)[C@H](C)N(C)C1=O [Compound 829] ([NMeL]I[NMeA][Aze][NMePhe(4-Me)][Sar][hPhe(3-Cl-4-CF3)]PA[NMeI][NMeD]-NMe2; lactam N-11) | 2.3 | > 500
CC[C@H](C)[C@@H]1NC(=O)[C@H](CC2CCCC2)N(C)C(=O)C[C@@H](C(=O)N2CCCC2)N(C)C(=O)[C@H]([C@@H](C)CC)N(C)C(=O)C2(CCCC2)NC(=O)[C@@H]2CCCN2C(=O)[C@H](CCc2ccc(C(F)(F)F)c(Cl)c2)NC(=O)CN(C)C(=O)[C@H](Cc2ccc(C(F)(F)F)cc2)N(C)C(=O)[C@@H]2CCN2C(=O)[C@H](C)NC1=O [Compound 1320] ([NMeAla(cPent)]IA[Aze][NMePhe(4-CF3)][Sar][hPhe(3-Cl-4-CF3)]P[Ac5c][NMeI][NMeD]-Pyrrolidide; lactam N-11) | 1.4 | ≤ 20
CC[C@H](C)[C@@H]1NC(=O)[C@H](C)N(C)C(=O)C[C@@H](C)NC(=O)[C@H](C2CCCC2)N(C)C(=O)C2(CCCC2)NC(=O)[C@@H]2CCCN2C(=O)[C@H](CCc2ccc(C(F)(F)F)c(Cl)c2)NC(=O)CN(C)C(=O)[C@H](Cc2cccnc2)N(C)C(=O)[C@@H]2CCCN2C(=O)CN(C)C1=O [Compound 489] (cyclo([Ac5c][NMeGly(cPent)][d(β3hA)][NMeA]I[Sar]P[NMe3Pal][Sar][hPhe(3-Cl-4-CF3)]P)) | 8.1 | > 500
CCO[C@@H]1C[C@H]2C(=O)NC3(CCCC3)C(=O)N(C)[C@@H]([C@@H](C)CC)C(=O)N(C)[C@H](C)CC(=O)N(C)[C@@H](CC(C)C)C(=O)N[C@@H]([C@@H](C)CC)C(=O)N(C)[C@@H](C)C(=O)N3CC[C@H]3C(=O)N(CC)[C@@H](Cc3ccc(C(F)(F)F)cc3)C(=O)N(C)CC(=O)N[C@@H](CCc3cc(F)c(C(F)(F)F)c(F)c3)C(=O)N2C1 [Compound 374] (cyclo([Ac5c][NMeI][NMedβ3hAla][NMeL]I[NMeA][Aze][NEtPhe(4-CF3)][Sar][hPhe(3,5-F2-4-CF3)][Hyp](Et))) | 6.5 | ≤ 20

Source: patent publication US20240148821A1, “PHARMACEUTICAL USE OF CYCLIC PEPTIDE COMPOUND” (CHUGAI SEIYAKU KABUSHIKI KAISHA, priority 2021, published 2024)
